The values that follow come from US9694016B2 (Novartis AG, priority 2013, dated 2017).

b-Raf (V600E), sequence (P15056 whole entry V600E): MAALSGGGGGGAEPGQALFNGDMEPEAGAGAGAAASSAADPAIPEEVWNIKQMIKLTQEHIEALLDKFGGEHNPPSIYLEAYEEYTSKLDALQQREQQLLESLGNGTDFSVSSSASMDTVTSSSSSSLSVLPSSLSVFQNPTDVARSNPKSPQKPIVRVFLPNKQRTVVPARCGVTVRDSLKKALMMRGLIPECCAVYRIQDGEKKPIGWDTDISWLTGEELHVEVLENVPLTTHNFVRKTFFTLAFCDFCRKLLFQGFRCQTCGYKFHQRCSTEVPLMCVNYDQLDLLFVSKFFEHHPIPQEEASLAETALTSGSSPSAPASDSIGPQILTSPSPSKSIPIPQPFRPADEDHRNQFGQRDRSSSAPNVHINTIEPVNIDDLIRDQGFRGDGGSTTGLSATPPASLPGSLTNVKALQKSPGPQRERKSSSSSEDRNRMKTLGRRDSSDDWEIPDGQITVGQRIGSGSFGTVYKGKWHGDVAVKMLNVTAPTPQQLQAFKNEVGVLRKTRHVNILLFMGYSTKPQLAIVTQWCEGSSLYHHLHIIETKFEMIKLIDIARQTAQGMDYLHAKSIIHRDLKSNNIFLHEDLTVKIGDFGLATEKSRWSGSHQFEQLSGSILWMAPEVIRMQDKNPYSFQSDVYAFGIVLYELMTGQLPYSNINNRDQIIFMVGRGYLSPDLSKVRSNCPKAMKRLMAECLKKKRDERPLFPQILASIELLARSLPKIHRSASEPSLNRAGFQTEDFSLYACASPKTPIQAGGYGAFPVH

The assay concerns the target b-Raf (V600E) (Homo sapiens (Human), UniProt P15056, V600E). The conditions noted are these: read-out: b-Raf IC-50; AlphaScreen, 60 min pre-incubation, 3 hours reaction. On the technique in general: In Alpha technology, singlet oxygen from a donor bead excites a nearby acceptor bead.
Consider `Cc1ccc(NC(=O)c2ccnc(C(F)F)c2)cc1-c1cc(N2CCOCC2)nc(N2C(=O)OC[C@@H]2C)n1` [Example 785, (S)-2-(difluoromethyl)-N-(4-methyl-3-(2-(4-methyl-2-oxooxazolidin-3-yl)-6-morpholinopyrimidin-4-yl)phenyl)isonicotinamide], for which the IC50 was 7.5 nM. With `Cc1ccc(NC(=O)c2ccnc(C(C)(C)C#N)c2)cc1-c1cc(N2CCOCC2)nc(NC2CNC2)n1` [Example 786, N-(3-(2-(azetidin-3-ylamino)-6-morpholinopyrimidin-4-yl)-4-methylphenyl)-2-(2-cyanopropan-2-yl)isonicotinamide], the IC50 came to 14.9 nM. Consider `Cc1ncc(NC(=O)c2cccc(C(F)(F)F)c2)cc1-c1cc(N2CCOCC2)nc(NC2CNC2)n1` [Example 787, N-(5-(2-(azetidin-3-ylamino)-6-morpholinopyrimidin-4-yl)-6-methylpyridin-3-yl)-3-(trifluoromethyl)benzamide], for which the IC50 stood at 5.5 nM.

Take `Cc1ncc(NC(=O)c2cccc(C(F)(F)F)c2)cc1-c1cc(N2CCOCC2)nc(C(C)(C)O)n1` [Example 788, N-(5-(2-(2-hydroxypropan-2-yl)-6-morpholinopyrimidin-4-yl)-6-methylpyridin-3-yl)-3-(trifluoromethyl)benzamide]: the IC50 came to 200 nM. Regarding `Cc1ncc(NC(=O)c2ccnc(C(C)(C)F)c2)cc1-c1cc(N2CCOCC2)n2nccc2n1` [Example 790, 2-(2-fluoropropan-2-yl)-N-(6-methyl-5-(7-morpholinopyrazolo[1,5-a]pyrimidin-5-yl)pyridin-3-yl)isonicotinamide], the IC50 worked out at 3.5 nM.

Take `Cc1ncc(NC(=O)c2ccnc(C(C)(C)C#N)c2)cc1-c1cc(N2CCOCC2)n2nccc2n1` [Example 791, 2-(2-cyanopropan-2-yl)-N-(6-methyl-5-(7-morpholinopyrazolo[1,5-a]pyrimidin-5-yl)pyridin-3-yl)isonicotinamide]: the IC50 turned out to be 11.4 nM. On to `Cc1ccc(NC(=O)c2ccnc(C(C)(C)C#N)c2)cc1-c1cc(N2CCOCC2)n2nccc2n1` [Example 792, 2(2-cyanopropan-2-yl)-N-(4-methyl-3(7-morpholinopyrazolo[1,5-a]pyrimidin-5-yl)phenyl)isonicotinamide], for which the IC50 turned out to be 1.7 nM. Take `Cc1ncc(NC(=O)c2cccc(C(F)(F)F)c2)cc1-c1cc(N2CCOCC2)n2nccc2n1` [Example 793]: the IC50 was found to be 1.3 nM. Regarding `Cc1ccc(NC(=O)c2ccnc(C(C)(C)O)c2)cc1-c1cc(N2CCOCC2)n2nccc2n1` [Example 794, 2-(2-hydroxypropan-2-yl)-N-(4-methyl-3-(7-morpholinopyrazolo[1,5-a]pyrimidin-5-yl)phenyl)isonicotinamide], the IC50 was determined as 2.6 nM. The value for `Cc1ccc(NC(=O)c2cnnc(C(C)(C)C#N)c2)cc1-c1cc(N2CCOCC2)n2nccc2n1` [Example 795, 6-(2-cyanopropan-2-yl)-N-(4-methyl-3-(7-morpholinopyrazolo[1,5-a]pyrimidin-5-yl)phenyl)pyridazine-4-carboxamide] was 1.8 nM; that for `Cc1ccc(NC(=O)c2ccnc(C3(C#N)CC3)c2)cc1-c1cc(N2CCOCC2)n2nccc2n1` [Example 796, 2-(1-cyanocyclopropyl)-N-(4-methyl-3-(7-morpholinopyrazolo[1,5-a]pyrimidin-5-yl)phenyl)isonicotinamide] was 0.7 nM; that for `Cc1ncc(NC(=O)c2ccnc(C(C)(C)O)c2)cc1-c1cc(N2CCOCC2)n2nccc2n1` [Example 797, 2-(2-hydroxypropan-2-yl)-N-(6-methyl-5-(7-morpholinopyrazolo[1,5-a]pyrimidin-5-yl)pyridin-3-yl)isonicotinamide] was 24.7 nM. For the compound `Cc1ncc(NC(=O)c2ccnc(C(F)(F)F)c2)cc1-c1cc(N2CCOCC2)n2nccc2n1` [Example 798, N-(6-methyl-5-(7-morpholinopyrazolo[1,5-a]pyrimidin-5-yl)pyridin-3-yl)-2-(trifluoromethyl)isonicotinamide], the IC50 is 1.1 nM.

As to `Cc1ncc(NC(=O)c2ccnc(C(C)(F)F)c2)cc1-c1cc(N2CCOCC2)n2nccc2n1` [Example 799, 2-(1,1-difluoroethyl)-N-(6-methyl-5-(7-morpholinopyrazolo[1,5-a]pyrimidin-5-yl)pyridin-3-yl)isonicotinamide], the IC50 is 1.5 nM. In the case of `CCC(F)(F)c1cc(C(=O)Nc2cnc(C)c(-c3cc(N4CCOCC4)n4nccc4n3)c2)ccn1` [Example 800, 2-(1,1-difluoropropyl)-N-(6-methyl-5-(7-morpholinopyrazolo[1,5-a]pyrimidin-5-yl)pyridin-3-yl)isonicotinamide], the IC50 was found to be 2 nM. Consider `Cc1ncc(NC(=O)c2cnnc(C(F)(F)F)c2)cc1-c1cc(N2CCOCC2)n2nccc2n1` [Example 801, N-(6-methyl-5-(7-morpholinopyrazolo[1,5-a]pyrimidin-5-yl)pyridin-3-yl)-6-(trifluoromethyl)pyridazine-4-carboxamide], for which the IC50 came to 3 nM. The value for `Cc1ncc(NC(=O)c2ccnc(C3(C#N)CC3)c2)cc1-c1cc(N2CCOCC2)n2nccc2n1` [Example 802, 2-(1-cyanocyclopropyl)-N-(6-methyl-5-(7-morpholinopyrazolo[1,5-a]pyrimidin-5-yl)pyridin-3-yl)isonicotinamide] was 3.1 nM. Regarding `Cc1ncc(NC(=O)c2ccnc(C(F)F)c2)cc1-c1cc(N2CCOCC2)n2nccc2n1` [Example 803, 2-(difluoromethyl)-N-(6-methyl-5-(7-morpholinopyrazolo[1,5-a]pyrimidin-5-yl)pyridin-3-yl)isonicotinamide], the IC50 came out at 1.9 nM. In the case of `Cc1ncc(NC(=O)c2cccc(C(F)F)c2)cc1-c1cc(N2CCOCC2)n2nccc2n1` [Example 804, 3-(difluoromethyl)-N-(6-methyl-5-(7-morpholinopyrazolo[1,5-a]pyrimidin-5-yl)pyridin-3-yl)benzamide], the IC50 came to 0.8 nM. For the compound `Cc1ccc(NC(=O)c2ccnc(C(F)F)c2)cc1-c1cc(N2CCOCC2)n2nccc2n1` [Example 805, 2-(difluoromethyl)-N-(4-methyl-3-(7-morpholinopyrazolo[1,5-a]pyrimidin-5-yl)phenyl)isonicotinamide], the IC50 was 0.4 nM. Regarding `Cc1ccc(NC(=O)c2ccnc(S(C)(=O)=O)c2)cc1-c1cc(N2CCOCC2)n2nccc2n1` [Example 806], the IC50 was 1.1 nM. The value for `Cc1ncc(NC(=O)c2ccnc(S(C)(=O)=O)c2)cc1-c1cc(N2CCOCC2)n2nccc2n1` [Example 807, N-(6-methyl-5-(7-morpholinopyrazolo[1,5-a]pyrimidin-5-yl)pyridin-3-yl)-2-(methylsulfonyl)isonicotinamide] was 8.8 nM; that for `Cc1ncc(NC(=O)c2cc(C(F)(F)F)ccn2)cc1-c1cc(N2CCOCC2)n2nccc2n1` [Example 810, N-(6-methyl-5-(7-morpholinopyrazolo[1,5-a]pyrimidin-5-yl)pyridin-3-yl)-4-(trifluoromethyl)picolinamide] was 1.4 nM. As to `Cc1ccc(NC(=O)c2cccc(C(F)(F)F)c2)cc1-c1nc(N2CCOCC2)c2sccc2n1` [Example 829, N-(4-methyl-3-(4-morpholinothieno[3,2-d]pyrimidin-2-yl)phenyl)-3-(trifluoromethyl)benzamide], the IC50 stood at 0.2 nM. In the case of `Cc1ccc(NC(=O)c2cccc(C(F)(F)F)c2)cc1-c1nc(N2CCOCC2)c2[nH]ccc2n1` [Example 830, N-(4-methyl-3-(4-morpholino-5H-pyrrolo[3,2-d]pyrimidin-2-yl)phenyl)-3-(trifluoromethyl)benzamide], the IC50 amounted to 0.6 nM. For the compound `Cc1ccc(NC(=O)c2cccc(C(F)(F)F)c2)cc1-c1nc(N2CCOCC2)c2cccnc2n1` [Example 833, N-(4-methyl-3-(4-morpholinopyrido[2,3-d]pyrimidin-2-yl)phenyl)-3-(trifluoromethyl)benzamide], the IC50 came to 1.7 nM. Turning to `Cc1ccc(NC(=O)c2cccc(C(F)(F)F)c2)cc1-c1nc2c(c(N3CCOCC3)n1)CNCC2` [Example 835, N-(4-methyl-3-(4-morpholino-5,6,7,8-tetrahydropyrido[4,3-d]pyrimidin-2-yl)phenyl)-3-(trifluoromethyl)benzamide], the IC50 was 2.1 nM.

Regarding `Cc1ccc(NC(=O)c2cccc(C(F)(F)F)c2)cc1-c1nc2c(c(N3CCOCC3)n1)CNC2` [Example 836, N-(4-methyl-3-(4-morpholino-6,7-dihydro-5H-pyrrolo[3,4-d]pyrimidin-2-yl)phenyl)-3-(trifluoromethyl)benzamide], the IC50 worked out at 3.1 nM.

Regarding `Cc1ccc(NC(=O)c2cccc(C(F)(F)F)c2)cc1-c1nc(N2CCOCC2)c2c(cnn2C)n1` [Example 837, N-(4-methyl-3-(1-methyl-7-morpholino-1H-pyrazolo[4,3-d]pyrimidin-5-yl)phenyl)-3-(trifluoromethyl)benzamide], the IC50 turned out to be 0.2 nM. `Cc1ccc(NC(=O)c2cccc(C(F)(F)F)c2)cc1-c1nc(N2CCOCC2)c2occc2n1` [Example 838, N-(4-methyl-3-(4-morpholinofuro[3,2-d]pyrimidin-2-yl)phenyl)-3-(trifluoromethyl)benzamide]: the IC50 is 0.9 nM.

With `Cc1ccc(NC(=O)c2cccc(C(F)(F)F)c2)cc1-c1nc(N2CCOCC2)c2ncsc2n1` [Example 839, N-(4-methyl-3-(7-morpholinothiazolo[5,4-d]pyrimidin-5-yl)phenyl)-3-(trifluoromethyl)benzamide], the IC50 turned out to be 0.9 nM. Take `Cc1ccc(NC(=O)c2cccc(C(F)(F)F)c2)cc1-c1nc(N2CCOCC2)c2cnn(C)c2n1` [Example 840, N-(4-methyl-3-(1-methyl-4-morpholino-1H-pyrazolo[3,4-d]pyrimidin-6-yl)phenyl)-3-(trifluoromethyl)benzamide]: the IC50 worked out at 0.6 nM. Regarding `Cc1ccc(NC(=O)c2ccnc(C(C)(C)O)c2)cc1-c1cc(N2CCOCC2)c2nccn2n1` [Example 841, 2-(2-hydroxypropan-2-yl)-N-(4-methyl-3-(8 morpholinoimidazo[1,2-b]pyridazin-6-yl)phenyl)isonicotinamide], the IC50 is 1.7 nM. For the compound `Cc1ccc(NC(=O)c2ccnc(C(C)C)c2)cc1-c1cc(N2CCOCC2)c2nccn2n1` [Example 842, 2-isopropyl-N-(4-methyl-3-(8-morpholinoimidazo[1,2-b]pyridazin-6-yl)phenyl)isonicotinamide], the IC50 worked out at 1.3 nM.
